Each structure is given as a SMILES string.

This series can be described thus: Human HepG2 cell viability assay in 384 well format. Format: toxicity, cell-based. On the set-up: dose 125 nL, time 70.5 hour; concentration not given beside the values. Conditions: HepG2 cells, read-out: Inhibition.
With `Cc1ncccc1NC(=O)[C@@H]1CCO[C@@H]2CCN(c3ccccc3)C[C@@H]21`, the cytotoxicity at 70.5 h was -3.01%.
On to `CC(CNCc1ccc(Br)cc1)Oc1ccccn1` (centres undefined), for which the cytotoxicity at 70.5 h stood at 2.54%.
The same measure for `CCOCC1CN(S(=O)(=O)Cc2ccccc2)Cc2nccn2C1` (centres undefined): -3.22%; for `O=C(NCCNc1ncccn1)NCc1cccc(OC(F)F)c1`: 18.9%.
The same measure for `O=C(c1ccc2c(c1)OCCCO2)N1CCCC(n2cccn2)C1` (centres undefined): 0.26%; for `Cc1ccc(C(=O)N2CCC3(CCC(C(=O)NCC4CC4)O3)CC2)o1` (centres undefined): -12.5%; for `CN(C)C(=O)CO[C@H]1CO[C@@]2(CCN(Cc3ccsc3)C2)C1`: -6.3%.
As for `Cc1cc(C)c(CNC(=O)NCc2nnc3n2CCCCC3)c(=O)[nH]1`, the cytotoxicity at 70.5 h was -5.09%.
`CC(C)N1CCC(O)(CNC(=O)CC2OCCc3ccccc32)CC1` (centres undefined): the cytotoxicity at 70.5 h was determined as 4.01%.
The same measure for `CSCc1ccc(N(C)CC2CCCN(C(C)C)C2)nc1` (centres undefined): -2.8%; for `CC(c1ccco1)N(C(=O)CNc1ccc(C#N)cc1)C1CC1` (centres undefined): 4.38%; for `COCC(=O)Nc1nnc2n(Cc3cccc(OC)c3)[nH]c(C)c1-2`: -5.86%.
With `CC(C)n1ccnc1CN1CCCN(C(=O)c2ncccc2O)CC1` the figure was 0.148%; with `Cc1cccc(C(C)(C)NC(=O)CCS(C)(=O)=O)c1`, -3.08%.
The same measure for `CN(Cc1cc[nH]n1)C(=O)c1cn(Cc2ccccc2Cl)nn1`: -9.32%; for `COc1ccc(-n2nnc(C(=O)NC(C)C)c2C2CC2)cc1`: -6.86%; for `Cn1ccnc1CN1CCN(CC2CC2)[C@@H]2CS(=O)(=O)C[C@@H]21`: -7.65%.
Consider `CC(C)c1cc2c(s1)NC(c1ccccn1)NC2=O` (centres undefined), for which the cytotoxicity at 70.5 h is -3.28%.
`O=C(CCNc1ncccn1)N1CCN(c2nccs2)CC1`: the cytotoxicity at 70.5 h is -16.3%.
In the case of `Cc1cccc(N2CCN(C(=O)c3c(C)nn(C)c3C)CC2)c1C`, the cytotoxicity at 70.5 h was -0.882%.
With `Cc1nc(C)c(CNCC2CCCn3ccnc32)s1` (centres undefined) the figure was 15.5%; with `CCN(CC)S(=O)(=O)N1CCCC1c1nnc2n1CCN(C)CC2` (centres undefined), -10.9%; with `CC(C)c1noc(CN2CCC(C3CCCCCN3S(C)(=O)=O)CC2)n1` (centres undefined), 11%.
With `CCCc1cc(C(=O)N[C@H](C)[C@@H](O)c2ccc(O)cc2)n(C)n1` the figure was -11.6%.
With `Cc1ccc(-c2nc(C(=O)N3CCCCC3CNS(C)(=O)=O)cs2)cc1` (centres undefined) the figure was 11%.
As to `COCc1ccc(C(=O)N2CCC(c3cc4ncc(C)nc4[nH]3)C2)cc1` (centres undefined), the cytotoxicity at 70.5 h was -4.31%.
`Cc1ccc(C(=O)NS(=O)(=O)c2c(Cl)cccc2Cl)c(=O)[nH]1`: the cytotoxicity at 70.5 h was -5.05%.
Consider `c1ccc(-n2cc(CN3CCCC(Cn4cncn4)C3)nn2)cc1` (centres undefined), for which the cytotoxicity at 70.5 h was -7.1%.
With `O=C(CC1CC1)N1CCN(Cc2cccnc2)c2ncccc2C1` the figure was -9.33%; with `c1cncc(-c2cccc(-c3ccn(CCN4CCCCC4)n3)c2)c1`, 13.9%; with `Cc1nc(C)c2c(n1)CCN(C(=O)CN(C)C)CC2`, 2.27%.
`CS(=O)(=O)N1CCN(c2cc(-n3cccc3)ncn2)CC1`: the cytotoxicity at 70.5 h was -4.46%.
As for `COc1ccc(NC(=O)Cn2nc(C)c(C)cc2=O)cc1Cl`, the cytotoxicity at 70.5 h was 0.971%.
The same measure for `CCCC1c2ccccc2CCN1CCS(C)(=O)=O` (centres undefined): -3.74%; for `CSc1ccc(CN(CCO)C(=O)CCc2cccc(F)c2)cc1`: -15.9%; for `Cc1ccc(C2CN(CCCC#N)CCO2)c(C)c1` (centres undefined): -2.64%.
Regarding `CC(=O)c1ccc(CNC(=O)c2cc(C#N)cn2C)nc1C`, the cytotoxicity at 70.5 h was -4.66%.
With `CCc1nnsc1C(=O)N1CCN(CC(O)C(C)(C)C)CC1` (centres undefined) the figure was -10.2%; with `Cc1nc2c(c(=O)n1C)CN(C(=O)C1CCCN(CC(N)=O)C1)C2` (centres undefined), 8.71%; with `c1coc(CN2CC[C@@H]3O[C@@H](COCC4CCOCC4)CC[C@@H]32)c1`, -0.874%.
The same measure for `CN(C)c1ccc(C(=O)NCC2(O)CCOCC2)cc1`: -8.78%; for `COc1ncc(C(=O)N2CCCC3(C=Cc4ccccc4O3)CC2)cn1` (centres undefined): 13.5%.
The same measure for `CNC(=O)CN1CCC(NC(=O)CC(C)CCc2ccccc2)CC1` (centres undefined): 12.1%.
Consider `O=C(O)c1ccnc(-c2ccnc(N3CCC4(CCO4)CC3)n2)c1`, for which the cytotoxicity at 70.5 h was -11.6%.
As for `O=C(c1cnccn1)N1CCCC(Cn2cc(C3CCCC3)nn2)C1` (centres undefined), the cytotoxicity at 70.5 h was -10.8%.
Consider `O=C1CNc2ncnc(NCc3cccs3)c2N1`, for which the cytotoxicity at 70.5 h is -5.96%.
Turning to `CCOc1ccc(NC(=O)c2cccc(OC)c2OC)cc1`, the cytotoxicity at 70.5 h was -1.48%.
With `CC(=O)N1CCC1c1cc(N2CCSCC2)nc(C)n1` (centres undefined) the figure was -1.98%; with `CC(=O)N1CCCC1c1nccc(C)n1` (centres undefined), -9.48%.
The same measure for `CCOc1cc(NC(=O)C2CC(=O)N(c3cccc(OC)c3)C2)ncn1` (centres undefined): -2.94%.
Consider `Cn1ccnc1CN1CCc2ncnc(N3CCCC(C#N)C3)c2CC1` (centres undefined), for which the cytotoxicity at 70.5 h amounted to 26.4%.
The same measure for `COc1ccc2cnn(CC(=O)NCC3CCCO3)c(=O)c2c1OC` (centres undefined): -3.4%; for `COCCOc1cc(C(=O)N2CC(C)c3ccccc32)ccn1` (centres undefined): -11.1%; for `CCc1c(C(=O)N2CCCN(C(C)=O)CC2)cnn1C(C)(C)C`: -0.109%.
The same measure for `Cn1cnc2c1CCN(CCOc1ccc(C#N)cc1)C2`: 1.67%; for `O=C(c1cccnc1N1CCN(Cc2ccoc2)CC1)N1CCCCC1`: -0.284%; for `CCN(CC)C(=O)c1cccc(Cn2nc(C)cc2C)c1`: -8.82%.
The same measure for `Cc1ccc(N2CCO[C@H]3CN(Cc4cccs4)C[C@H]32)nn1`: 8.57%.
As to `Cc1cnccc1CN1C[C@@H](O)[C@H](Oc2cccc(F)c2)C1`, the cytotoxicity at 70.5 h was -3.81%.
In the case of `CC(C)N(C)Cc1cncc2c1CCN(CC(=O)N(C)C)C2`, the cytotoxicity at 70.5 h is 20%.
The same measure for `CC(C)c1nnc(NCc2cc3n(n2)CCN(C2CCCCC2)C3)s1`: -0.516%; for `O=C(O)c1nn(CC2CC2)c2c1CN(S(=O)(=O)c1cccnc1)CC2`: -11%; for `O=C(Cc1ccc2c(c1)OCO2)N[C@@H]1CCNC[C@H]1O`: -3.71%.
The same measure for `CCC(NC(=O)C1CCN(S(C)(=O)=O)CC1)c1ccc(OC)c(OC)c1` (centres undefined): -7.44%; for `Cc1cc(CN(C)S(=O)(=O)N2CCCC2c2ccc(C)o2)no1` (centres undefined): -9.33%.
The same measure for `CC1(C)Oc2ccc(NC(=O)c3ccc(=O)[nH]n3)cc2O1`: -12.5%; for `Cc1nc(CNCC2CCCN2c2cccnn2)cs1` (centres undefined): 2.56%.
Take `N[C@H]1CN(C(=O)c2ccc(CO)cc2)C[C@@H]1C1CC1`: the cytotoxicity at 70.5 h is 6.41%.
With `Fc1cccc(-c2nc(CN3CCCC3Cn3cncn3)co2)c1` (centres undefined) the figure was 8.65%; with `COc1ccnc(N2CCN(CC(=O)N3CCC(C)CC3)CC2)n1`, -13.2%; with `O=C(NCCNc1ccccn1)NCC1CCS(=O)(=O)C1` (centres undefined), 4.42%.
Regarding `CCS(=O)(=O)N1CCCC(Cc2cnccn2)C1` (centres undefined), the cytotoxicity at 70.5 h was -6.07%.
With `Cc1nc(CSCc2ccc(OCC(F)(F)F)nc2)no1` the figure was -7.83%.
Turning to `Cc1cc(N(C)C)cc(C2CCN(S(=O)(=O)c3cccs3)C2)n1` (centres undefined), the cytotoxicity at 70.5 h was 14.4%.
With `CC(C)NC(=O)N1CCC2(CC1)COc1ccccc1S(=O)(=O)N(C)C2`, the cytotoxicity at 70.5 h stood at 0.573%.
Turning to `Cc1nc2ccccn2c1CC(=O)N[C@@H]1CCC[C@@H](N2CCCC2)[C@@H]1O`, the cytotoxicity at 70.5 h was -1.64%.
With `CCCS(=O)(=O)N1CCOCC2(CCN(c3ccccn3)C2)C1` (centres undefined) the figure was -11.6%.
The same measure for `O=S1(=O)N=C(SCc2ccc(Cl)cc2)Nc2ccc(F)cc21`: 7.01%; for `CC1CN(C(=O)c2ccn(C)c(=O)c2)c2ccccc2NC1=O` (centres undefined): -2.71%.
With `O=C(c1cccs1)N1C[C@@H]2OCCN(CC3CCCO3)[C@@H]2C1` (some centres undefined) the figure was 1.09%; with `CN1CCC(N(C)C(=O)CCc2ccc(F)c(F)c2)C1=O` (centres undefined), -6.34%.
For `CCc1c(C)sc(NC(=O)CN2CCOCC2)c1C(=O)OC`, the cytotoxicity at 70.5 h was -6.67%.
The same measure for `Cc1nc(N)cc(NCc2csc(N(C)C)n2)n1`: -4.3%; for `Cc1cnn(CCNCc2ccccc2Oc2cccnc2)c1`: 28.3%.
Turning to `O=C(c1cc(=O)c(OCc2ccccc2F)co1)N1CCCC1`, the cytotoxicity at 70.5 h is 1.91%.
The same measure for `CC1CN(c2ncnc3cccc(F)c23)CCO1` (centres undefined): 10.6%; for `COC(=O)c1cccn1C1CCN(CC(=O)NC2CCCCC2)CC1`: -8.68%; for `O=C(c1ccccn1)N1CCC2(CC1)COC(COc1cccnc1)C2` (centres undefined): -7.52%.
The same measure for `Cc1nc(C)n(CC2CCCN(CC(=O)Nc3ccncc3)C2)n1` (centres undefined): -5.01%; for `CN1CCN(Cc2ccccc2Cl)CC12CCC(=O)N(CC1CC1)CC2` (centres undefined): 0.313%; for `Cn1nc(C(=O)N2CCCCCC2)cc1NC(=O)c1ccccc1`: -9.93%.
The same measure for `OCC1(O)CCN(Cc2ccc(C3CCCCO3)o2)CC1` (centres undefined): -1.61%.
Consider `Cc1cc(CNc2ccc3nc(C)sc3c2)no1`, for which the cytotoxicity at 70.5 h is -4.46%.
Regarding `Cc1cccc(CCNC(=O)CCS(=O)(=O)C2CCCC2)c1`, the cytotoxicity at 70.5 h is -5.57%.
Consider `N#Cc1ccc(N2CCCN(C(=O)CC3CCCO3)CC2)cc1` (centres undefined), for which the cytotoxicity at 70.5 h is -15.2%.
As to `CN1CC(Oc2ccc(Cl)cc2)=NC(SCC(=O)c2ccccc2)=N1`, the cytotoxicity at 70.5 h is 14.8%.
The same measure for `OC(CNc1ccncn1)CN1CCCCCC1` (centres undefined): -7.06%; for `Cn1cc(CN2CCC[C@]3(C(=O)O)CN(c4ncccn4)C[C@@H]3C2)cn1`: -12%.
The same measure for `Cn1cnc2c1CCN(Cc1csc(-c3ccccc3)n1)C2`: 24.1%.

These data come from ChEMBL document CHEMBL3507680, “University of Dundee, Gates Library screen for HepG2 cell viability”.
